How the values were obtained:
SW620 [1] = experiment: Combination assay, SW620; format: cell-based, human; settings: Homo sapiens, SW-620; SW620, chemotherapeutic alone; read-out: Chemo GI50
Description: (§1) The combination index (CI) of combinations of certain example compounds and various chemotherapeutic agents in the CellTitetI-Glo® in vitro cell proliferation assays may be tested. A combination index score is calculated by the Chou and Talalay method (CalcuSyn software, Biosoft). The strength of synergy is scored using the ranking system Chou and Talalay: CI less than 0.8 indicates synergy, CI between 0.8 and 1.2 indicates additivity and CI greater than 1.2 indicates antagonism.
(§2) The EC50 values of representative combinations are also calculated. The individually measured EC50 values of the chemotherapeutic agent and the example compounds are compared to the EC50 value of the combination. The cell lines are characterised by tumor type. Combination assays are performed as described in: “Pim 1 kinase inhibitor ETP-45299 suppresses cellular proliferation and synergizes with PI3K inhibition”. Blanco-Aparicio, Carmen; Collazo, Ana Maria Garcia; Oyarzabal, Julen; Leal, Juan F.; Albaran, Maria Isabel; Lima, Francisco Ramos; Pequeno, Belen; Ajenjo, Nuria; Becerra, Mercedes; Alfonso, Patricia; Reymundo, Maria Isabel; Palacios, Irene; Mateos, Genoveva; Quinones, Helena; Corrionero, Ana; Carnero, Amancio; Pevarello, Paolo; Lopez, Ana Rodriguez; Fominaya, Jesus; Pastor, Joaquin; Bischoff, James R. Cancer Letters (Shannon, Ireland) 2011, 300(2), 145-153

DU145 = experiment: Combination assay, DU145; format: cell-based; settings: Homo sapiens, DU-145; DU145, chemotherapeutic alone; read-out: Chemo GI50
Description: as §1
The EC50 values of representative combinations are also calculated. The individually measured EC50 values of the chemotherapeutic agent and the example compounds are compared to the EC50 value of the combination. The cell lines are characterised by tumor type. […] Blanco-Aparicio, Carmen; Collazo, Ana Maria Garcia; Oyarzabal, Julen; Leal, Juan F.; Albaran, Maria Isabel; Lima, Francisco Ramos; Pequeno, Belen; Ajenjo, Nuria; Becerra, Mercedes; Alfonso, Patricia; Reymundo, Maria Isabel; Palacios, Irene; Mateos, Genoveva; Quinones, Helena; Corrionero, Ana; Carnero, Amancio; Pevarello, Paolo; Lopez, Ana Rodriguez; Fominaya, Jesus; Pastor, Joaquin; Bischoff, James R. Cancer Letters (Shannon, Ireland) 2011, 300(2), 145-153

HCT116 = experiment: Combination assay, HCT116; format: cell-based; settings: Homo sapiens, HCT-116; HCT116, chemotherapeutic alone; read-out: Chemo GI50
Description: as §1, §2

Molm13 = experiment: In vitro cell proliferation assay (CellTiter-Glo), Molm13; format: cell-based; settings: Homo sapiens, MOLM-13; growth inhibition, semiquantitative; read-out: GI50 Molm13
Description: (§3) The in vitro potency of the compounds was measured by the cell proliferation assay CellTiter-Glo® Luminescent Cell Viability Assay, commercially available from Promega Corp., Madison, Wis. This homogeneous assay method is based on the recombinant expression of Coleoptera luciferase (U.S. Pat. No. 5,583,024; U.S. Pat. No. 5,674,713; U.S. Pat. No. 5,700,670) and determines the number of viable cells in culture based on quantitation of the ATP present, an indicator of metabolically active cells (Crouch et al (1993) J. Immunol. Meth. 160:81-88; U.S. Pat. No. 6,602,677). The CellTiterGlo® Assay was conducted […] it amenable to automated high throughput screening (HTS) (Cree et al (1995) AntiCancer Drugs 6:398-404).
(§4) The homogeneous assay procedure involves adding the single reagent (CellTiter-Glo® Reagent) directly to cells cultured in serum-supplemented medium. Cell washing, removal of medium and multiple pipetting steps are not required. The system detects as few as 15 cells/well in a 96-well format in 10 minutes after adding reagent and mixing.
(§5) The homogeneous “add-mix-measure” format results in cell lysis and generation of a luminescent signal proportional to the amount of ATP present. The amount of ATP is directly proportional to the number of cells present in culture. The CellTiter-Glo® Assay generates a “glow-type” luminescent signal, produced by the luciferase reaction, which has a half-life generally greater than five hours, depending on cell type and medium used. Viable cells are reflected in relative luminescence units (RLU). The substrate, Beetle Luciferin, is oxidatively decarboxylated by recombinant firefly luciferase with concomitant conversion of ATP to AMP and generation of photons. The extended half-life eliminates the need to use reagent injectors and provides flexibility for continuous or batch mode processing of multiple plates. This cell proliferation assay can be used with various multiwell formats, e.g. 96 or 384 well format. Data can be recorded by luminometer or CCD camera imaging device. The luminescence output is presented as relative light units (RLU), measured over time.

CDK8/Cyclin C = CDK8/Cyclin C (Homo sapiens (Human), UniProt P49336); experiment: CDK8/Cyclin C binding assay (LanthaScreen Eu-Kinase Binding Assay); settings: binding assay
Description: The enzyme has been purchase from Invitrogen (PV4402) as a dimer of full-length His-tagged recombinant human proteins.
(§6) Assays were performed in 384-well plates. The final read out was generated using an EnVision plate reader (Perkin-Elmer).

intracellular CDK8 [2] = target: T1, intracellular CDK8 (Homo sapiens (Human), UniProt P49336); experiment: Cellular CDK8 inhibition assay, western blot P-STAT1 (S727) in IFN-γ treated SW620 cells; format: cell-based; settings: SW620, IFNγ treated, semiquantitative; read-out: SW620 P-STAT1(S727) w IFNγ
Description: Compounds can be screened for their ability to inhibit intracellular CDK8 using a western blot assay to detect phosphorylation of the CDK8 substrate STAT1 (S727) in IFN-γ treated cells. SW620 cells are plated at 1*10^6 cells per well in 6-well plates (Solmeglas 13118) in RPMI media (Sigma-Aldrich R6504) supplemented with 10% foetal bovine serum (Sigma-Aldrich F7524), Penicillin/Streptomycin solution diluted 1:100 (Gibco 15070-063), and fungizone (Gibco, 15290-018), and allowed to adhere overnight at 37° C. in 5% CO2. Compounds are then added to the cell media from a final concentration of 10 μM in 10-fold serial dilutions and the cells are incubated at 37° C. in 5% CO2. After 1 hour, IFNγ (R&D systems Ref. RYD-285-IF-100) is added to a final concentration of […]. After 3 hours of treatment with IFNγ, the cells are washed in PBS, lysed adding 100 μl of protein lysis buffer (62.5 mM Tris pH 6.8 al 6.25%, 2% SDS y 10% glycerol) incubation 10 minutes at room temperature and heating at 95° C. 10 min. The protein content of the lysates is determined by DC protein assay (Biorad, Ref. 5000116). The proteins are resolved by SDS-PAGE and transferred to nitrocellulose membrane (VWR International eurolab, Ref. 732-4007). The membranes are incubated overnight at 4° C. with antibodies specific for total STAT1 (BD Transduction laboratory #610115), phosphoserine-727 STAT1 (Cell Signaling Ref. 9177) they are washed and then incubated with IRDye800 conjugated anti-mouse (Pierce/Cultek, 35521) and Alexa Fluor 680 goat anti-rabbit IgG secondary antibodies (Invitrogen, A21076). The bands are visualized and quantified using an Odyssey infrared imaging system (Li-Cor Biosciences). The percentage of phosphorylated STAT1 vs total STAT1 in cells treated with IFNγ is taken as hundred percent of phosphorylation. The percentage of STAT1 phosphorylation is finally plotted against concentration for each compound and EC50s for intracellular CDK8 inhibition are calculated using ActivityBase from IDBS.

CDK19/Cyclin C = CDK19/Cyclin C (Homo sapiens (Human), UniProt Q9BWU1); experiment: CDK19/Cyclin C binding assay (LanthaScreen Eu-Kinase Binding Assay); settings: read-out: CDK19-CYCC IC50
Description: The binding assay relies on the LanthaScreen™ Eu-Kinase Binding Assay (Invitrogen).
Assay conditions were as indicated by the kit manufacturers with the following adaptations: • Assay buffer: 50 mM HEPES, pH 7.5, 1 mM EGTA, 0.01% Brij-35, 10 mM MgCl2 • Assay volume: 20 μl • Incubation time and temperature: 60 min at 25° C. • Cdk19-Cyclin C concentration: 2 nM • Tracer concentration: 20 nM • (Eu)-labelled anti-GST antibody concentration: 2 nM • Tested compound: Serial 1:3 dilutions • Final DMSO concentration in the assay: 1%
as §6

MV4:11 = experiment: In vitro cell proliferation assay (CellTiter-Glo), MV4:11; format: cell-based; settings: Homo sapiens, MV4-11; growth inhibition, semiquantitative; read-out: GI50 MV4:11
Description: as §3, §4, §5

MDA-MB-231 = experiment: In vitro cell proliferation assay (CellTiter-Glo), MDA-MB-231; format: cell-based; settings: Homo sapiens, MDA-MB-231; growth inhibition, semiquantitative; read-out: GI50 MDA-MB-231
Description: as §3, §4, §5

SW620 [3] = experiment: In vitro cell proliferation assay (CellTiter-Glo), SW620; format: cell-based, human; settings: Homo sapiens, SW-620; growth inhibition, semiquantitative; read-out: GI50 SW620
Description: as §3, §4, §5

intracellular CDK8 [4] = target: T1, intracellular CDK8; experiment: Endogenous phosphoSTAT1 inhibition in SW620 cells growing in 10% FBS; format: cell-based; settings: semiquantitative, read-out: SW620 P-STAT1(S727)
Description: Endogenous phosphoSTAT1 inhibition can be screened in cells growing in 10% FBS. Cells are plated as described before and treated for 8 h with compounds as described before. Then cells are lysated and phospho STAT1 is evaluated as described before. The percentage of phosphorylated STAT1 vs total STAT1 in cells treated with DMSO is taken as hundred percent of phosphorylation. The percentage of STAT1 phosphorylation is finally plotted against concentration for each compound and EC50s for intracellular CDK8 inhibition are calculated using ActivityBase from IDBS.

Haspin kinase = Haspin kinase (Homo sapiens (Human), UniProt Q8TF76); experiment: Haspin kinase assay (ADP-Glo); format: biochemical; settings: ATP 150 μM
Description: The kinase assay relies on ADP-Glo^KM biochemical kinase assay (Promega). This is a luminescent kinase assay that measures ADP formed from a kinase reaction. Then ADP is converted into ATP, which is transformed into a light signal by Ultra-Glo™ Luciferase. The luminescent signal positively correlates with kinase activity. The assay measures the intrinsic ATPase activity (in the absence of peptidic substrate as phosphate acceptor).
The enzyme was purchase from Invitrogen (PV5708) as the kinase domain of GST tagged recombinant human proteins.
Assay conditions were as indicated by the kit manufacturers with the following adaptations: • Assay buffer: 15 mM HEPES pH 7.4, 20 mM NaCl, 1 mM EGTA, 0.02% Tween 20, 10 mM MgCl2, 0.1 mg/ml BGG • Assay volume: 20 μl • Incubation time and temperature: 60 min at 30° C. • Haspin concentration: 20 nM • ATP concentration: 150 μM • Tested compound: Serial 1:3 dilutions • Final DMSO concentration in the assay: 1%
Assays were performed in 384-well plates. The final read out was generated using an EnVision plate reader (Perkin-Elmer). Luminescent relative units are normalized against the control activity included for each compound (i.e., 100% Haspin activity, without compound) and the percentage of inhibition is calculated.

Sequence of CDK19/Cyclin C (Q9BWU1 whole entry): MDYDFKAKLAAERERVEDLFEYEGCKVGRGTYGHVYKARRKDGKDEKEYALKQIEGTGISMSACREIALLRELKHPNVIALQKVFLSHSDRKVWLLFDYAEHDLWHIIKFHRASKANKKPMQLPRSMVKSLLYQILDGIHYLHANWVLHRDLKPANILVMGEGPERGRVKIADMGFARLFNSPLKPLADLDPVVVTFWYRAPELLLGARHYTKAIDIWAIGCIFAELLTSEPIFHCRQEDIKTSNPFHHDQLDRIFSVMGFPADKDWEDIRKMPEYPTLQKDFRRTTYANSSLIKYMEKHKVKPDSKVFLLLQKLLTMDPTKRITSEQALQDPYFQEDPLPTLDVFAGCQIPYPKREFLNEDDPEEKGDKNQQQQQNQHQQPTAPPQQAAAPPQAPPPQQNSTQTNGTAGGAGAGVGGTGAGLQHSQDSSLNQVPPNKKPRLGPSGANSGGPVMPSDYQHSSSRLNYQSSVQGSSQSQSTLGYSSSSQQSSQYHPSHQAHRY
Sequence of CDK19/Cyclin C (P24863 whole entry partner): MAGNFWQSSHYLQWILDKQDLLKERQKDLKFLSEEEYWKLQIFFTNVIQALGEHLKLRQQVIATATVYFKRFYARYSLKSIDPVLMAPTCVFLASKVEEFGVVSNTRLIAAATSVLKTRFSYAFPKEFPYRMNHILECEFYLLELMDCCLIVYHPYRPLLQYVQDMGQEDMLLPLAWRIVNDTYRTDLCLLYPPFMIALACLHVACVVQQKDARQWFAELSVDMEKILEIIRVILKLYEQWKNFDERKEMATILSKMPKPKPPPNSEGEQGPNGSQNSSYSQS
Sequence of CDK8/Cyclin C (P49336 whole entry): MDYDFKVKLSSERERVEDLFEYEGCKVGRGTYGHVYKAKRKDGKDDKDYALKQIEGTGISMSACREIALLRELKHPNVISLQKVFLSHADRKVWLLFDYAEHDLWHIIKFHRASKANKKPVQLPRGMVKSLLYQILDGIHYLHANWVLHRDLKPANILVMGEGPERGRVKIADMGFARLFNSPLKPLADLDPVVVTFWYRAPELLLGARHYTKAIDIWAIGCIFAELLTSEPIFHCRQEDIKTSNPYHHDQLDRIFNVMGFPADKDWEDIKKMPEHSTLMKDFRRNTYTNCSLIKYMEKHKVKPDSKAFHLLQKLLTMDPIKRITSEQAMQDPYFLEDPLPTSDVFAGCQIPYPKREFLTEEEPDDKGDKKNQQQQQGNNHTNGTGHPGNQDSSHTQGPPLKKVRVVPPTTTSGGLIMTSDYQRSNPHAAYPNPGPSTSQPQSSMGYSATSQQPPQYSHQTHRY
Sequence of CDK8/Cyclin C (P24863 whole entry partner): as the sequence (P24863 whole entry partner) above
T1 sequence (P49336 whole entry): as the sequence (P49336 whole entry) above
T1 sequence (P24863 whole entry partner): as the sequence (P24863 whole entry partner) above
T1 sequence (Q93074 whole entry partner): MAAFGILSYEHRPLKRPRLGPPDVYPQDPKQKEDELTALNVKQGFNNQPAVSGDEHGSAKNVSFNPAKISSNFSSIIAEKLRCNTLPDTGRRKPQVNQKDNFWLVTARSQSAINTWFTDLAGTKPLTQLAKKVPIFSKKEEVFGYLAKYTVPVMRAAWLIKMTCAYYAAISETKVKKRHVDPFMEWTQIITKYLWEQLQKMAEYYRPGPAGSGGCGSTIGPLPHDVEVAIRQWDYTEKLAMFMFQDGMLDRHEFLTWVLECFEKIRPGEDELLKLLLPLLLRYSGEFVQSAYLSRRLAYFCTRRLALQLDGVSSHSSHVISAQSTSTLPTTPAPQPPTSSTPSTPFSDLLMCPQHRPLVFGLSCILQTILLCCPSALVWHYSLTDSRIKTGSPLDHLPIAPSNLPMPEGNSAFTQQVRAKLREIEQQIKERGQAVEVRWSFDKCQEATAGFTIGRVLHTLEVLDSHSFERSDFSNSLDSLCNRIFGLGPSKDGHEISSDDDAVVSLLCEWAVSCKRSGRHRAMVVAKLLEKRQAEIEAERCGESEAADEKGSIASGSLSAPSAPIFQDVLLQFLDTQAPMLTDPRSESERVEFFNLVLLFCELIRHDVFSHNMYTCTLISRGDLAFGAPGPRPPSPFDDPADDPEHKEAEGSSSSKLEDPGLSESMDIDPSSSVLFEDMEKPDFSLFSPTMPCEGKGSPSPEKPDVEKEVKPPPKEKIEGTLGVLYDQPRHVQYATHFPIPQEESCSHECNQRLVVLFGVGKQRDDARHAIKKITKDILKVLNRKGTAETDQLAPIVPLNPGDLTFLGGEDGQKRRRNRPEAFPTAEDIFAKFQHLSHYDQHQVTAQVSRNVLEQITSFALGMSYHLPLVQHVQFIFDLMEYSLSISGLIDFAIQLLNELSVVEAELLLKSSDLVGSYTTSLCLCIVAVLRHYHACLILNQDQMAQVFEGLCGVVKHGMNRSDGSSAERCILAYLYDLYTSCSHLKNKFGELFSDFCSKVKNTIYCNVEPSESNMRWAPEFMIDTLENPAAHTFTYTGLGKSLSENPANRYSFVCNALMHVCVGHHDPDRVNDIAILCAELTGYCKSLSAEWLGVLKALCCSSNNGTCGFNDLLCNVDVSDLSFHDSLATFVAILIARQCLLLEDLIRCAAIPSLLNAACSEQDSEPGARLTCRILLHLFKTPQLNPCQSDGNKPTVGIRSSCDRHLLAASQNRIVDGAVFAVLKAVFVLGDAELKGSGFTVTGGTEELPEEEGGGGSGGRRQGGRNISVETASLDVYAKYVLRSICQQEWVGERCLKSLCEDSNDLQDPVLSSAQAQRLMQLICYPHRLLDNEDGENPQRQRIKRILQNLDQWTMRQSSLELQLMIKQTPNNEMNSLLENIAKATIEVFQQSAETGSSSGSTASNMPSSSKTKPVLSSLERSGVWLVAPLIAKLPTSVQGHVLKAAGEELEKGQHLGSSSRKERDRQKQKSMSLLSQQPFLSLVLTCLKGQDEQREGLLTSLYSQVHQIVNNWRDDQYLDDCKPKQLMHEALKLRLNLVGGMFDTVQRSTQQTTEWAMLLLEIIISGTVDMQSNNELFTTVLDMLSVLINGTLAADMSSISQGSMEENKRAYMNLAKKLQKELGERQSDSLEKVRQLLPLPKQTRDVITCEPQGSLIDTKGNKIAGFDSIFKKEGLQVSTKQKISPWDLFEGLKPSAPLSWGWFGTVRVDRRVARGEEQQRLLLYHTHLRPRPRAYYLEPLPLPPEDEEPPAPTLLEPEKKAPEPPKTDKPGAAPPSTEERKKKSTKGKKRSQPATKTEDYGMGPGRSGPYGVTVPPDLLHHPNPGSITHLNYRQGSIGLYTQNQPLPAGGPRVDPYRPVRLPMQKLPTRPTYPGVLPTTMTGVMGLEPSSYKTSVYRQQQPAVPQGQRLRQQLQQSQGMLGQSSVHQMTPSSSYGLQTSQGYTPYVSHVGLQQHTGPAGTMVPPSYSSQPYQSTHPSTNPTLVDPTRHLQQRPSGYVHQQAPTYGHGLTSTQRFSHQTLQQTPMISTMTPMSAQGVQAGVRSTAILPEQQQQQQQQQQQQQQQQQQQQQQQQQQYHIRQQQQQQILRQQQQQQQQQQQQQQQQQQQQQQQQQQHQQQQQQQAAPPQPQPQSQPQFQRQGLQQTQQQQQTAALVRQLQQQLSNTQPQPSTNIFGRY
Sequence of Haspin kinase (Q8TF76 484-798): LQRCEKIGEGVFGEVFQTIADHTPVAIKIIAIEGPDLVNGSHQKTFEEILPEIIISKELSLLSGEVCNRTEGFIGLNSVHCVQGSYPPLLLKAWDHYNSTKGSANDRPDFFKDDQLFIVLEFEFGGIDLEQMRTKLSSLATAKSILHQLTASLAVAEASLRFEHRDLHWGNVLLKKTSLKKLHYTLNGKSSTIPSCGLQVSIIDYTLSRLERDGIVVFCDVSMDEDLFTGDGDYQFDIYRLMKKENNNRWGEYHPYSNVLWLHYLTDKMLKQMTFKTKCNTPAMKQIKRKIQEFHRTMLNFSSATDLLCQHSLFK

GI50 (SW620 [1]) [nM]	GI50 (DU145) [nM]	GI50 (HCT116) [nM]	GI50 (Molm13) [nM]	IC50 (CDK8/Cyclin C) [nM]	EC50 (intracellular CDK8 [2]) [nM]	IC50 (CDK19/Cyclin C) [nM]	GI50 (MV4:11) [nM]	GI50 (MDA-MB-231) [nM]	GI50 (SW620 [3]) [nM]	EC50 (intracellular CDK8 [4]) [nM]	IC50 (Haspin kinase) [nM]	Compound
500	12500	12500	–	–	–	–	–	–	–	–	–	COc1cc(Nc2ncc3c(n2)-c2ccc(Cl)cc2C(c2c(F)cccc2OC)=NC3)ccc1C(=O)O [Alisertib, alisertib, reference compound]
5	–	5	–	–	–	–	–	–	–	–	–	CC(=O)O[C@H]1C(=O)[C@@]2(C)[C@H]([C@H](OC(=O)c3ccccc3)[C@]3(O)C[C@H](OC(=O)[C@H](O)[C@@H](NC(=O)c4ccccc4)c4ccccc4)C(C)=C1C3(C)C)[C@]1(OC(C)=O)CO[C@@H]1C[C@@H]2O [Taxol, paclitaxel, reference compound]
–	–	–	< 1000	19.3	< 500	87.3	< 1000	1000 to 10000	< 1000	–	–	NC(=O)c1cc2c([nH]1)-c1ccncc1O[C@@H]2C1CCCCC1 (single isomer, unassigned) [Example 69]
–	–	–	< 1000	1.96	–	1.41	< 1000	1000 to 10000	10000 to 100000	< 500	15.9	NC(=O)c1cc2c([nH]1)-c1ccncc1OC21CCC1 [Example 15]

Source: patent US10208056B2, “Condensed tricyclic compounds as protein kinase inhibitors” (FUNDACIÓN DEL SECTOR PÚBLICO ESTATAL CENTRO NACIONAL DE …, priority 2015, dated 2019)
